Experimental data as given in ChEMBL document CHEMBL3044774, “Synthesis of D-glucosamine quaternary ammonium derivatives and evaluation of their antifungal activity together with aminodeoxyglucose derivatives against two wood fungi Coriolus versicolor and Poria placenta: structure-activity relationships” (2011).

Assays:
Assay type in all cases: functional
Trametes versicolor [1] = assay: Antifungal activity against Trametes versicolor Quel. CTB 863-A assessed as mycelial growth inhibition at 1.5 x 10^-4 mol/ml after 9 days relative to control
Poria [2] = assay: Antifungal activity against Poria placenta FPRL 280 assessed as mycelial growth inhibition at 0.75 x 10^-4 mol/ml after 9 days relative to control
Trametes versicolor [3] = assay: Antifungal activity against Trametes versicolor Quel. CTB 863-A assessed as mycelial growth inhibition at 1 x 10^-4 mol/ml after 9 days relative to control
Poria [4] = assay: Antifungal activity against Poria placenta FPRL 280 assessed as mycelial growth inhibition at 0.5 x 10^-4 mol/ml after 9 days relative to control

Structure (SMILES) | growth inhibition (GI) (Trametes versicolor [1]) [%] | growth inhibition (GI) (Poria [2]) [%] | growth inhibition (GI) (Trametes versicolor [3]) [%] | growth inhibition (GI) (Poria [4]) [%]
CC(=O)OC[C@H]1OC(OC(C)=O)[C@H]([N+](C)(C)C)[C@@H](OC(C)=O)[C@@H]1OC(C)=O (stereo partly specified) | 45.9 | 74.1 |  | 
CC(=O)OC[C@H]1OC(OC(C)=O)[C@H]([N+](C)(C)C2CCCCC2)[C@@H](OC(C)=O)[C@@H]1OC(C)=O (stereo partly specified) | 100 | 100 |  | 
NC[C@H]1O[C@@H](O)[C@H](O)[C@@H](O)[C@@H]1O | 19.2 | 31.7 | 6.7 | 27.1
CCN[C@H]1C(OC(C)=O)O[C@H](COC(C)=O)[C@@H](OC(C)=O)[C@@H]1OC(C)=O (stereo partly specified) | 53.7 |  |  | 
N[C@H]1[C@H](O)[C@@H](CO)OC(O)[C@@H]1O (stereo partly specified) | 14.9 | 26.7 | 0 | 18.4
CC(=O)OC[C@H]1OC(OC(C)=O)[C@H](N(C)C)[C@@H](OC(C)=O)[C@@H]1OC(C)=O (stereo partly specified) | 34.9 | 48.2 |  | 
N[C@H]1C(O)O[C@H](CO)[C@@H](O)[C@@H]1O (stereo partly specified) [GLUCOSAMINE] | 11 | 25.9 | 0 | 10.2
CC[N+](C)(C)[C@H]1C(OC(C)=O)O[C@H](COC(C)=O)[C@@H](OC(C)=O)[C@@H]1OC(C)=O (stereo partly specified) | 74.9 | 80 |  | 
CC[N+](C)(C)[C@H]1C(O)O[C@H](CO)[C@@H](O)[C@@H]1O.O=S(=O)([O-])O (stereo partly specified) | 64.4 | 77.2 |  | 
CC(=O)OC[C@H]1OC(OC(C)=O)[C@H](NC2CCCCC2)[C@@H](OC(C)=O)[C@@H]1OC(C)=O (stereo partly specified) | 87.9 | 91.8 |  | 
N[C@@H]1O[C@H](CO)[C@@H](O)[C@H](O)[C@H]1O | 82.4 | 100 | 50.6 | 81.6
CCN[C@H]1C(O)O[C@H](CO)[C@@H](O)[C@@H]1O (stereo partly specified) | 40.4 | 47.1 |  | 
